Results reported in patent US20200222564A1, “Compound Amphiphilic Peptide Nanomicelle, Preparation and Use Thereof” (Tianjin University, priority 2019, published 2020).

Tested on: CNE-2Z cells
Test: CCK-8 cytotoxicity in CNE-2Z cells
Format: cell-based
Conditions: 0-100 μg/mL, 24 h in the dark
Description: First of all, the designed concentration (0, 20, 40, 60, 80 and 100 μg/mL) solution of nanomicelle and rose bengal were prepared with 1640 medium. CNE-2Z cells were seeded into a 96-well player at a density of 2×10^4 cells per well. Each sample with a certain concentration was added to 5 wells. The cytotoxicity of the pure rose bengal and the nanomicelle solution at different concentrations was compared. After culturing for 48 hours, the cells were grown to 80%, and the medium containing different volumes of nanomicelle and rose bengal solution was added instead of the original medium according to the experimental group setting. After an additional incubation for 24 h at 37° C. in the dark, fresh medium (100 μL) together with CCK-8 (10 μL) was added followed by […] on a microplate reader at a wavelength of 450 nm. Cell viability was calculated according to the formula, with the maximum and minimum of OD values excluded:
Cell Viability=average of (OD−ODblk)/average of (OD0−ODblk)×100%

O=C([O-])c1c(Cl)c(Cl)c(Cl)c(Cl)c1-c1c2cc(I)c(=O)c(I)c-2oc2c(I)c([O-])c(I)cc12.[Na+].[Na+] [Rose Bengal]
toxicity to CNE-2Z cells: less toxic
